This is an account of results in patent US7524487B2, “Compositions and methods for modulating interleukin-10” (University of Maryland, priority 2005, dated 2009).

The subject of one assay is Sp1. The assay is described as follows: EMSA of Sp1 binding to the IL-10 promoter motif, nuclear extracts of BMMφ. The format is cell-based, mice. To be noted: BMMφ stimulated with LPS 10 ng/ml or LPS+E-IgG for 30 min. As for the experimental part:
A. Cells were stimulated with LPS (10 ng/ml) or LPS+E-IgG for 30 min and nuclear extracts were analyzed by EMSA using Sp1 (A) or STAT3 (B) specific probes. C. RAW264.7 cells were stimulated with medium (open bar), E-IgG (dotted bar), LPS (solid bar) or LPS+E-IgG (striped bar) and cytokines measured by ELISA after 6 h. Data represents the mean of triplicate samples±SD. D. RAW264.7 cells were transfected with pRL-IL10-luciferase reporter plasmid (5 ug/ml) and 24 h later stimulated with medium (con), 10 ng/ml LPS (solid bar) or E-IgG+LPS (striped bar) for 4 h. Cells were then lysed and luciferase activity measured. This figure is representative of 3 experiments.
Electrophoretic mobility shift assay (EMSA). Nuclear extracts were prepared from 2×10^7 Mφ using the Nuclear Extraction kit (Panomics, Redwood City, Calif.) following the manufactures protocol. EMSAs were carried out using the EMSA “Gel-Shift” kit (Panomics, Redwood City, Calif.). Briefly, 5 μg of nuclear extract were incubated with biotin-Sp1 or STAT3 probe±unlabelled probe for 30 min at 20° C., and then run on a 6% polyacrylamide gel. Oligo/protein complexes were transferred to Biodyne B membrane (Pall, Ann Arbor, Mich.). Following transfer, membranes were incubated with streptavidin-HRP and protein visualized by chemiluminescence.
(Mobility shift assays separate free from complexed probe on a gel.)

In another assay the test system is IL-10 promoter. The assay is described as follows: DNase I accessibility of the IL-10 promoter (nucleosome −2) by QRT-PCR. The format is cell-based, mice. To be noted: BMMφ pre-treated with PD98059 15 μM for 1 hour, IC plus LPS 10 ng/mL for 60 min. As to the method:
FIG. 23 are graphs showing enhanced chromatin accessibility following ERK activation. (A) BMMφ were stimulated with IC plus LPS (10 ng/mL) for 0, 15, 30, 60, and 120 min. Nuclei were isolated at each time point post-stimulation and treated with or without MNase. DNA was purified and analyzed for the presence of sequences corresponding to nucleosomes −2 and −12 by QRT-PCR. The data were graphically plotted as percentage of MNase accessibility relative to the samples of stimulation at zero time point. (B) BMMφwere pre-treated with PD98059 (15 μM) (open bars) or drug vehicle control (solid bars) for 1 hour and then stimulated with IC plus LPS (10 ng/mL) for 60 min. Nuclei were isolated from each group and treated with or without DNase I followed by extraction of genomic DNA. […] The data were expressed as percentage of DNase I accessibility relative to undigested genomic DNA sample and graphically plotted for each treated group. […]
DNase I sensitivity assayed by Real-time PCR. DNase I accessibility was determined as previously described (Goriely, et al. 2003. Blood 101:4894-4902; Rao, et al. 2001. J. Immunol. 167:4494-4503.) with minor modifications. […]
MNase accessibility assay was performed on cells grown in 100-mm tissue culture dishes that were stimulated with LPS/IC. […] DNase I accessibility was determined as previously described (Lucas, M., X. Zhang, et al. 2005. J. Immunol. 175:469).

As to `COc1cccc(-c2cc(=O)c3ccccc3o2)c1N` [PD98059], in the assay with Sp1, the “Sp1 binding to the IL-10 promoter (EMSA)” value is “no effect”. For the same compound, in the assay on IL-10 promoter, the “reduction of sensitivity to DNase I at nucleosome −2” value is on record as “greater than half”.
